# Measured values as given in patent US11712443B2, “17α-monoesters and 17α,21-diesters of cortexolone for use in the treatment of tumors” (COSMO TECHNOLOGIES LTD., priority 2014, dated 2023).
# How the values were obtained:
# Glucocorticoid Receptor = biological target: T1, Glucocorticoid Receptor (Homo sapiens, UniProt P04150); assay: GR transcriptional reporter assay, agonist mode; type: cell-based
# T1 construct: endogenous in cells; host or cells: human kidney epithelial cells
# T1 sequence (P04150 1-777): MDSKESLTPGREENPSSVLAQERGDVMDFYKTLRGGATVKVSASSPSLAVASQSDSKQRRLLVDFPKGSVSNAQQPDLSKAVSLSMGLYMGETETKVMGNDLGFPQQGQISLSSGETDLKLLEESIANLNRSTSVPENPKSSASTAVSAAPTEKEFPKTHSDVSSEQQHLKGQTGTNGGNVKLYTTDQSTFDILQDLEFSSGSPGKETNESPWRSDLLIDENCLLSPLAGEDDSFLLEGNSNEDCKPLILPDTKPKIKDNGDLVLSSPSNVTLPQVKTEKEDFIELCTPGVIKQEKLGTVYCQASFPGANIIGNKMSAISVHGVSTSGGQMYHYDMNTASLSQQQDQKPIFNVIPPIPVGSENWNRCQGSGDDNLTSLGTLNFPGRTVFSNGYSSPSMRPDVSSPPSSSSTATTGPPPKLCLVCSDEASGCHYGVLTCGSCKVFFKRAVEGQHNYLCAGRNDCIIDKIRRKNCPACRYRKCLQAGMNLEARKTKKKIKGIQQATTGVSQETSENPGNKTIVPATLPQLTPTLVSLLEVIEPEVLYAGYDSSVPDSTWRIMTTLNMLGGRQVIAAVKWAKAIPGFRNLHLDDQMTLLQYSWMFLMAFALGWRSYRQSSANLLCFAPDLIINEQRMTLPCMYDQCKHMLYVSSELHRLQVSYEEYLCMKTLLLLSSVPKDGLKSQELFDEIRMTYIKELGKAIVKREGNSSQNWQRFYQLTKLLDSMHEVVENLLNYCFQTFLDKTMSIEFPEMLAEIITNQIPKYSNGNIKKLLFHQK
# Description: The androgen and glucocorticoid hormones elicit divergent and often opposing effects in cells, tissues, and animals. […] CB-03-10 GR antagonist and agonist activities were tested in an in vitro assay. Briefly, human kidney epithelial cells were transfected with DNA construct containing GR binding sites linked to luminescent based reporter molecule. After 24 hours, cells were treated under antagonist or agonist modes. After an additional 24 hours, luminescence which is proportional to GR agonist transcriptional activity was quantitated.
# Agonist Assay—was based on induction of luminescence by CB-03-10
# The agonist activity of CB-03-10 was compared to a RU486 which is known to not have agonist activity.
# [1] = In vitro metabolism in rat plasma; type: in vitro ADME; conditions: 37 C; liquid chromatography; FIG. 13
# Description: To obtain some insights on the metabolism of CB-03-10 in human and rat plasma, a specific assay was designed. Briefly the compound was incubated at different time in human and rat plasma at 37 C. After incubation the samples were tested for presence of the intact compound by liquid chromatography.
structure (smiles),measurement,setting,value
"CCCCC(=O)O[C@]1(C(=O)COC(=O)CC)CC[C@H]2[C@@H]3CCC4=CC(=O)CC[C@]4(C)[C@H]3CC[C@@]21C [CB-03-10, cortexolone 17α-valerate-21-propionate]",GR agonist activity relative to that of 50 nM Dex,Glucocorticoid Receptor; at very high concentrations,20%
same,GR agonist activity,"Glucocorticoid Receptor; induction of luminescence, FIG. 8",essentially ineffective as GR agonist
same,degradation in rat plasma,[1],degraded more rapidly in rat compared to human plasma
